Like-named read-outs stand apart in the source and are kept apart here. Values belong to the molecule of their own block, whether it stands above or below them.
Tests used:
L929 = assay: In vitro L929 cytotoxicity assay (CTG); assay type: cell-based; conditions: L929 cells; read-out: Cytotox (CTG) CC50
Description: (§1) Samples from several classes of small molecule compounds including, corticosteroids, glucocorticoids, oxysterols, compounds that impact the HMG coA reductase pathway and compounds that upregulate intracellular cAMP were screened for osteoinductive potential with an alkaline phosphatase (ALP) assay in primary human mesenchymal stem cells (MSCs). Sample compounds were screened over a dose range in a multiwell plate format using DNA to normalize the ALP response as a function of cell number. These dose response curves allowed for the determination of an EC50 to measure relative potency of the osteogenic response between compounds. FIG. 1 is a representative dose response curve for two of the corticosteroid compounds tested, clobetasol propionate and dexamethasone. In addition to the functional analysis, certain identified compounds were run through an in vitro L929 cytotoxicity assay to determine a CC50.

15 mm radial defect = assay: In vivo study in rabbit radial defect model, radiographs; conditions: Scaffold I coated intraoperatively plus autogenic bone marrow, three weeks post op
Description: An evaluation of two small molecule compounds, dexamethasone and 20S-hydroxycholesterol, was performed in the rabbit radial defect model. Scaffold I was coated with the compounds intraoperatively, combined with autogenic bone marrow, and implanted in a 15 mm radial defect. Radiographs were taken at 3 and 6 weeks post-operatively, after which the animals were sacrificed and explants analyzed by micro CT.

[1] = system: primary human mesenchymal stem cells (MSCs); assay: Osteoinductive (OI) alkaline phosphatase (ALP) assay, dose response, ALP normalised to DNA; assay type: cell-based
Description: as §1

MSCs [2] = assay: In vitro 3-D efficacy: ALP RNA expression in MSCs seeded on coated Scaffold I; assay type: cell-based; conditions: compound precoated on Scaffold I, MSCs cultured three days, versus basal conditions
Description: The osteoinductive potential of selected small molecule compounds were determined in vitro by seeding MSCs onto a three dimensional b-TCP polymer composite scaffold, Scaffold I, which had been coated with selected compounds prior to seeding. These cells were allowed to culture for a period of time after which they were assayed for alkaline phosphatase (ALP) RNA content, an early marker of osteogenic differentiation. FIG. 7 is a graphical illustration showing the amount of ALP RNA expression in the MSCs, expressed as a fold increase over basal conditions (standard culture conditions). In this example, dexamethasone (a control for the assay) was added to the culture media in solution whereas in all other cases the compounds were precoated on to Scaffold I followed by addition of the MSCs. The cells were then cultured for three days and assayed for their level of osteogenic response via ALP RNA expression.

MSCs [3] = assay: Relative potency: ALP assay after short exposure times, then basal media to assay completion; assay type: cell-based, human; conditions: for EC50: MSCs, then basal media
Description: One part of this technology may involve coating an osteoconductive scaffold with an osteoinductive small molecule compound to thereby deliver the compound locally when the scaffold is implanted. Consequently, the optimal time and concentration profile required for the compound to remain at the site in order to influence an osteogenic outcome was determined. Initially, potency was determined by looking at exposure over 6 days. In order to better understand the optimal exposure profile, MSCs were treated over a series of dose ranges for exposure times starting at 1 hour out to 4 days, after which the compound treated media was removed and the cells were allowed to continue to assay completion under basal media conditions. This allowed for the determination of the relative potency of the compounds over short exposure periods and gave an indication of the release requirements that would be necessary to achieve the desired osteogenic outcome.
FIG. 2 is a representative relative potency graph of a corticosteroid, fluticasone propionate, based on the results shown in Table 2.

[4] = Excipient testing at variable pH levels: solubility; assay type: physicochemical
Description: The goal of these experiments was to increase the solubility of the compound such that increased doses could be added to material scaffolds. In a set of experiments, the solubility of clobetasol propionate and fluticasone propionate were evaluated at three distinct pH levels with a series of excipients. Phosphate buffered solutions were prepared at pH levels 3 (Low), and 7 (Medium), and a Tris buffered solution was prepared at pH level 9 (High). Solubility of the compound in the presence of a given excipient was measured at the individual pH levels as a fold increase over the solubility of the compound with no excipient present. Data regarding the solubility of clobetasol propionate in combination with the excipients is given below in Table 3. Data regarding the solubility of fluticasone propionate in combination with the excipients is given below in Table 4.

[5] = primary human MSCs, exposure over 6 days, read-out: OI Assay (ALP) EC50

SMILES: CC(C)CCC[C@](C)(O)[C@H]1CC[C@H]2[C@@H]3CC=C4C[C@@H](O)CC[C@]4(C)[C@H]3CC[C@@]21C [20a-hydroxy-cholesterol]
CC50 (L929): > 12000 nM | radiographs, periosteal response (15 mm radial defect): appeared to have an enhanced periosteal response | EC50 [1, 5]: > 12000 nM

EC50 (MSCs [3]; 1 hr exposure, read-out: EC50 1 hr.): 0.194 nM | EC50 (MSCs [3]; 4 hr exposure, read-out: EC50 4 hr.): 0.0422 nM | EC50 (MSCs [3]; 24 hr exposure, read-out: EC50 24 hr.): 0.0676 nM | EC50 (MSCs [3]; 72 hr exposure, read-out: EC50 72 hr): 0.0042 nM | solubility, fold increase over no excipient ([4]; excipient Captisol, pH 3 (Low), phosphate buffered): 55.01 fold | solubility, fold increase over no excipient ([4]; excipient Captisol, pH 7 (Med), phosphate buffered): 80.81 fold | solubility, fold increase over no excipient ([4]; excipient Captisol, pH 9 (High), Tris buffered): 67.60 fold | solubility, fold increase over no excipient ([4]; excipient Cremophor_EL, pH 3 (Low), phosphate buffered): 94.00 fold | solubility, fold increase over no excipient ([4]; excipient Cremophor_EL, pH 7 (Med), phosphate buffered): 138.82 fold | solubility, fold increase over no excipient ([4]; excipient Cremophor_EL, pH 9 (High), Tris buffered): 89.92 fold | solubility, fold increase over no excipient ([4]; excipient DMA, pH 3 (Low), phosphate buffered): 6.67 fold | solubility, fold increase over no excipient ([4]; excipient DMA, pH 7 (Med), phosphate buffered): 8.41 fold | solubility, fold increase over no excipient ([4]; excipient DMA, pH 9 (High), Tris buffered): 7.07 fold | solubility, fold increase over no excipient ([4]; excipient DMSO, pH 3 (Low), phosphate buffered): 1.79 fold | solubility, fold increase over no excipient ([4]; excipient DMSO, pH 7 (Med), phosphate buffered): 1.96 fold | solubility, fold increase over no excipient ([4]; excipient DMSO, pH 9 (High), Tris buffered): 1.84 fold | solubility, fold increase over no excipient ([4]; excipient Dimethyl_isosorbide, pH 3 (Low), phosphate buffered): 4.14 fold | solubility, fold increase over no excipient ([4]; excipient Dimethyl_isosorbide, pH 7 (Med), phosphate buffered): 5.78 fold | solubility, fold increase over no excipient ([4]; excipient Dimethyl_isosorbide, pH 9 (High), Tris buffered): 5.01 fold | solubility, fold increase over no excipient ([4]; excipient Labrasol, pH 3 (Low), phosphate buffered): 54.03 fold | solubility, fold increase over no excipient ([4]; excipient Labrasol, pH 7 (Med), phosphate buffered): 85.96 fold | solubility, fold increase over no excipient ([4]; excipient Labrasol, pH 9 (High), Tris buffered): 79.23 fold | solubility, fold increase over no excipient ([4]; excipient NMP, pH 3 (Low), phosphate buffered): 6.39 fold | solubility, fold increase over no excipient ([4]; excipient NMP, pH 7 (Med), phosphate buffered): 9.02 fold | solubility, fold increase over no excipient ([4]; excipient NMP, pH 9 (High), Tris buffered): 7.96 fold | solubility, fold increase over no excipient ([4]; excipient PEG400, pH 3 (Low), phosphate buffered): 3.22 fold | solubility, fold increase over no excipient ([4]; excipient PEG400, pH 7 (Med), phosphate buffered): 4.32 fold | solubility, fold increase over no excipient ([4]; excipient PEG400, pH 9 (High), Tris buffered): 3.55 fold | solubility, fold increase over no excipient ([4]; excipient PVP, pH 3 (Low), phosphate buffered): 2.21 fold | solubility, fold increase over no excipient ([4]; excipient PVP, pH 7 (Med), phosphate buffered): 3.98 fold | solubility, fold increase over no excipient ([4]; excipient PVP, pH 9 (High), Tris buffered): 2.73 fold | solubility, fold increase over no excipient ([4]; excipient Propylene_glycol, pH 3 (Low), phosphate buffered): 5.63 fold | solubility, fold increase over no excipient ([4]; excipient Propylene_glycol, pH 7 (Med), phosphate buffered): 7.89 fold | solubility, fold increase over no excipient ([4]; excipient Propylene_glycol, pH 9 (High), Tris buffered): 5.90 fold | solubility, fold increase over no excipient ([4]; excipient Solutol_HS_15, pH 3 (Low), phosphate buffered): 3.82 fold | solubility, fold increase over no excipient ([4]; excipient Solutol_HS_15, pH 7 (Med), phosphate buffered): 5.00 fold | solubility, fold increase over no excipient ([4]; excipient Solutol_HS_15, pH 9 (High), Tris buffered): 4.47 fold | solubility, fold increase over no excipient ([4]; excipient Tweens, pH 3 (Low), phosphate buffered): 194.37 fold | solubility, fold increase over no excipient ([4]; excipient Tweens, pH 7 (Med), phosphate buffered): 272.98 fold | solubility, fold increase over no excipient ([4]; excipient Tweens, pH 9 (High), Tris buffered): 231.06 fold
SMILES: CCC(=O)O[C@]1(C(=O)SCF)[C@H](C)C[C@H]2[C@@H]3C[C@H](F)C4=CC(=O)C=C[C@]4(C)[C@@]3(F)[C@@H](O)C[C@@]21C [Fluticasone propionate]
CC50 (L929): > 1000 nM | ALP RNA expression (osteogenic differentiation of MSCs) (MSCs [2]): upregulated osteogenic differentiation of MSCs significantly | Max Osteogenic Response (MSCs [3]; time range to reach the full response of the ALP assay control (dexamethasone at 10 nM for 6 days)): 48 to 72 h | EC50 ([1]; MSCs, 6 days exposure, read-out: EC50 6 days): 0.0065 nM | EC50 [1, 5]: 0.0065 nM
